In patent US7541367B2, “3-benzoimidazolyl-pyrazolopyridines useful in treating kinase disorders” (Janssen Pharmaceutica, N.V., priority 2005, dated 2009):

Tests used:
[1] = molecular target: T1, CDK1 (Homo sapiens, UniProt P06493); assay: CDK-1 kinase screening assay (33P-ATP FlashPlate); format: biochemical; conditions: human CDK1 with cyclin B; 10 μM ATP; 1 hr at 30° C
T1 construct: purchased New England Biolabs, Beverly, Mass; 6020; host or cells: insect cells

[2] = molecular target: T2, VEGF-R2 (Rattus norvegicus, UniProt O08775); assay: VEGF-R2 kinase screening assay (33P-ATP FlashPlate); format: biochemical; conditions: rat VEGF-R2 kinase domain; 10 μM ATP; 1 hr at 30° C;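 note: Read-out is ³³P incorporation from ³³P-γ-ATP into biotinylated peptide substrate captured on streptavidin FlashPlate, counted by scintillation, 1% DMSO final, inhibition scaled between per-plate maximum and minimum signals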
T2 construct: polyhistidine (N)

[3] = molecular target: T3, HER2 (Homo sapiens, UniProt P04626); assay: HER2 kinase screening assay (33P-ATP FlashPlate); format: biochemical; conditions: GST-HIS6 HER-2 aa 679 to 1255; 10 μM ATP; 1 hr at 30° C;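 note: Biotin-poly(GT) 4:1 peptide captured on streptavidin FlashPlate, 33P transfer from γ-ATP read by scintillation counting, lower incorporation means inhibition, 1% DMSO final, 100 µL reaction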
T3 construct: GST (Glutathione-S-Transferase) (N); HIS6 (N); thrombin cleavage site (N); purchased Proqinase, Freiburg, Germany

[4] = molecular target: T4, Aurora-A (Mus musculus, UniProt P97477); assay: Aurora-A kinase screening assay (33P-ATP FlashPlate); format: biochemical; conditions: 10 μM ATP, 1 hr at 30° C;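 note: His-tagged mouse Aurora-A phosphorylating a biotinylated peptide captured on streptavidin plates, read as 33P uptake by scintillation counting, 1% DMSO, inhibition scaled between per-plate maximum and minimum signals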
T4 construct: polyhistidine (N)
T4 sequence (P97477 1-395): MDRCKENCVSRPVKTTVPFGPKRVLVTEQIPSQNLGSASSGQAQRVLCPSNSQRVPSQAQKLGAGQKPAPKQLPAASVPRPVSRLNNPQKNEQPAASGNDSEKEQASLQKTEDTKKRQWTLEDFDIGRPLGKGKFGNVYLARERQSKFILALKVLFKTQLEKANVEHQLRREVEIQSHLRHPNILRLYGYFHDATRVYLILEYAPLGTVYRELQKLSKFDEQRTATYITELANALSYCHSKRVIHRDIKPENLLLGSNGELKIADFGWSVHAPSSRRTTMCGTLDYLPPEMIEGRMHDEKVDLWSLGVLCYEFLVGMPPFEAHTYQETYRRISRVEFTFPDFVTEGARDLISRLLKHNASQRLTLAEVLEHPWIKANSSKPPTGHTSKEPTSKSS

[5] = molecular target: T5, c-Src kinase (Homo sapiens, UniProt P12931); assay: c-Src Kinase Assay; format: biochemical; conditions: 5 μM ATP
T5 construct: purchased Upstate Biotechnology, Lake Placid, N.Y
Experimental: A mixture of a 10× kinase buffer (80 mM MOPS at pH 7.0, 2 mM EDTA and 100 mM Magnesium Chloride), ATP (5 μM final from a 10 mM stock), a Cdc2 peptide […] (100 μM final from a 2.5 mM stock), γ-^33P ATP (10 μCi/μL stock) and water (for a total of 20 μL/well) was added to each well of a Streptavidin Flashplate.
Test compound in 100% DMSO (0.5 μL) was added to the appropriate wells. Diluted c-Src kinase (human) (Accession Number SWISS-PROT P12931) (Upstate Biotechnology, Lake Placid, N.Y.) (diluted in a buffer consisting of 20 mM MOPS at pH 7.0, 1 mM EDTA, β-mercaptoethanol (0.1%), Brij-35 (0.01%), glycerol (5%), and 1 mg/mL bovine serum albumin) (2.5 μL) was added to the wells to initiate the reactions. The reaction plates were incubated at 30° C. for 40 min. The reaction was terminated by the addition of a 3% phosphoric acid solution (5 μL). The reaction product (10 μL) was spotted onto a P30 filtermat and washed for 5 minutes in phosphoric acid (75 mM). The wash sequence was repeated two more times, followed with one final wash in methanol. The plates were then dried, sealed and read on the TopCount scintillation counter after adding 30 μL scintillation fluid.
(§1) A maximum and minimum signal for the assay was determined on each plate. The percent inhibition of a test compound was calculated according to the formula: […]
For a series of test concentrations, the IC50 was derived by graphing percent inhibition against the log of the concentrations tested for a given compound with results shown in Table 2
(§2) For compounds with multiple values, each value represents a separate assay result.

[6] = tested on: HeLa cervical adenocarcinoma; assay: Cell Proliferation Inhibition Assay (14C-thymidine incorporation), HeLa; format: cell-based; conditions: Homo sapiens, HeLa, HeLa cells;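 note: test compound in DMSO added to cells seeded in scintillating 96-well plates, DMSO-only wells as control, uptake of methyl 14C-thymidine into new DNA counted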
[7] = tested on: A375 malignant melanoma; assay: Cell Proliferation Inhibition Assay (14C-thymidine incorporation), A375; format: cell-based; conditions: Homo sapiens, A-375, A375 cells;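 note: proliferation measured by radiolabelled thymidine uptake into new DNA, counted in scintillating 96-well plates, compound-treated wells compared with DMSO-only control wells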
[8] = tested on: HCT-116 colon carcinoma; assay: Cell Proliferation Inhibition Assay (14C-thymidine incorporation), HCT-116; format: cell-based; conditions: Homo sapiens, HCT-116, HCT-116 cells;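 note: proliferation measured as methyl 14C-thymidine uptake into new DNA, counted in 96-well scintillating microplates, compared with DMSO-only control wells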
[9] = molecular target: T6, RET (Homo sapiens, UniProt P07949); assay: RET kinase screening assay (33P-ATP FlashPlate); format: biochemical; conditions: human RET kinase domain; 10 μM ATP; 1 hr at 30° C;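 note: biotinylated peptide substrate captured on streptavidin FlashPlate, 33P phosphate transfer read by scintillation counting, 1% DMSO, lower incorporation means inhibition, percent relative to per-plate maximum and minimum signals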
T6 construct: polyhistidine (N)
T6 sequence (P07949 658-1114 limits assumed): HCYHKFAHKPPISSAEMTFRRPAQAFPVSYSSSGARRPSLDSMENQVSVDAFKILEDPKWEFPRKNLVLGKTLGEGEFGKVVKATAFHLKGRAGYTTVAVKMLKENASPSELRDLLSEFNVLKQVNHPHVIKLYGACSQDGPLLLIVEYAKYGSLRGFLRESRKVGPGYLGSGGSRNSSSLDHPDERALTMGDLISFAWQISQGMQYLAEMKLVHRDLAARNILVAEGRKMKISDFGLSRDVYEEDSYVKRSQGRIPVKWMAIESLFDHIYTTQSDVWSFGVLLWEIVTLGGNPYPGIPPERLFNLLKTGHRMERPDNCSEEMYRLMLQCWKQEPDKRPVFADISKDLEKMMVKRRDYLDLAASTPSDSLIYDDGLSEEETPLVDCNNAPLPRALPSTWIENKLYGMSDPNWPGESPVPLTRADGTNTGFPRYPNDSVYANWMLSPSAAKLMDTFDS

[10] = molecular target: T7, Lyn kinase (Homo sapiens, UniProt P07948); assay: Lyn Kinase Assay; format: biochemical; conditions: 5 μM ATP
T7 construct: purchased Upstate Biotechnology, Lake Placid, N.Y
Experimental: Test compound in 100% DMSO (0.5 μL) was added to the appropriate wells. Diluted Lyn kinase (human) (Accession Number EMBL M16038) (Upstate Biotechnology, Lake Placid, N.Y.) (diluted in a buffer consisting of 50 mM Tris at pH 7.5, 0.1 mM EGTA, Sodium Vanadate (0.1 mM), β-mercaptoethanol (0.1%) and 1 mg/mL bovine serum albumin) (2.5 μL) was added to the wells to initiate the reactions.
The reaction plates were incubated at 30° C. for 40 min. The reaction was terminated by the addition of a 3% phosphoric acid solution (5 μL). The reaction product (10 μL) was spotted onto a P30 filtermat and washed for 5 minutes in phosphoric acid (75 mM). The wash sequence was repeated two more times, followed with one final wash in methanol. The plates were then dried, sealed and read on the TopCount scintillation counter after adding 30 μL scintillation fluid.
as §1
For a series of test concentrations, the IC50 was derived by graphing percent inhibition against the log of the concentrations tested for a given compound with results shown in Table 3
as §2

T2 sequence (O08775 786-1343): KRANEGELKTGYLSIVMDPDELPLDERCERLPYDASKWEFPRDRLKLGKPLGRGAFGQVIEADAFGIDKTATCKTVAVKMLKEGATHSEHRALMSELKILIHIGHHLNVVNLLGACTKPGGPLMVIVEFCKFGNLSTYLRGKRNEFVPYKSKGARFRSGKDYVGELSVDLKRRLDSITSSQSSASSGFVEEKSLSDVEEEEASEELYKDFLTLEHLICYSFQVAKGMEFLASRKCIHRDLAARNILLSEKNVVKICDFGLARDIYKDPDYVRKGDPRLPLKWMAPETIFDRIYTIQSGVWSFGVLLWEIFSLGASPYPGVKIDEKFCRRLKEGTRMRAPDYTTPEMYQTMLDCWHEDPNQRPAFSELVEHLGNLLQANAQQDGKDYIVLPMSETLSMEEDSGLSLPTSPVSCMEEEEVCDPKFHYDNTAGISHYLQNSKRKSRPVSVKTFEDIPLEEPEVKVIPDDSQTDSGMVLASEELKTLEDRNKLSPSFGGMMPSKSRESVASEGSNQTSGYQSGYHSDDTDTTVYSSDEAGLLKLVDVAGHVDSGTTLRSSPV
T1 sequence (P06493 whole entry): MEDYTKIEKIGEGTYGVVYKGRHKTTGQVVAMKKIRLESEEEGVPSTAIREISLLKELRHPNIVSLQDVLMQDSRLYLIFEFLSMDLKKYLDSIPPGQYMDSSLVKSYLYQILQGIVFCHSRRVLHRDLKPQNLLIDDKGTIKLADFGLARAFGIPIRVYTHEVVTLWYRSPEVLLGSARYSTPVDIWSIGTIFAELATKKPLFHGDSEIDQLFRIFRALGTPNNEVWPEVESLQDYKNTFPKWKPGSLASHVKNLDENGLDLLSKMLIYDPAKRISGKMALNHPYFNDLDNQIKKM
T1 sequence (P14635 whole entry partner): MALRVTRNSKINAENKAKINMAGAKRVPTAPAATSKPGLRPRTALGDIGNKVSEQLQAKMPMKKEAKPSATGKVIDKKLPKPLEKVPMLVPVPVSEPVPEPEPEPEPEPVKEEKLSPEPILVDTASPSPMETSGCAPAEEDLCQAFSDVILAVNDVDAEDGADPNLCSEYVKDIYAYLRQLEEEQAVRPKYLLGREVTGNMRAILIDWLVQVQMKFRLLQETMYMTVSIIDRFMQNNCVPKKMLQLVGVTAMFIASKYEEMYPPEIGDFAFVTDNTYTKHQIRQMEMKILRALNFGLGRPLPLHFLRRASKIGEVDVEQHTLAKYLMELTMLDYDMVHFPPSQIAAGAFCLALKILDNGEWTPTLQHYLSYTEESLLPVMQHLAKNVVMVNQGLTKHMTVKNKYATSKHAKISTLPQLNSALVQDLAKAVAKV
T5 sequence (P12931 whole entry): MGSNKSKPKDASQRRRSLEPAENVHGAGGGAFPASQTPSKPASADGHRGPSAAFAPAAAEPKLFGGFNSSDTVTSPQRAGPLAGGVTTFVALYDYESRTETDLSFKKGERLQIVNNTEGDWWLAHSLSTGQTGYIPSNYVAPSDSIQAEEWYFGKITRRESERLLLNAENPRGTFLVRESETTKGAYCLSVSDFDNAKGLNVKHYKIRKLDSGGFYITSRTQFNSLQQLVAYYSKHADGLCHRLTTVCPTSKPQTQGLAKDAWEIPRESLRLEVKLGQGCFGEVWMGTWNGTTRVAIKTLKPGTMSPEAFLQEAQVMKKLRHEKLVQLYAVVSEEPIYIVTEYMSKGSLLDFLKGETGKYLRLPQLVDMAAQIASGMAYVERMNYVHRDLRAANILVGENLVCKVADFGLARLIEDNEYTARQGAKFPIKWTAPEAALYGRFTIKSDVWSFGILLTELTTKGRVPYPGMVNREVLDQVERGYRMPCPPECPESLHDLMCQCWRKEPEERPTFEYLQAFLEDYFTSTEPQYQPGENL
T3 sequence (P04626 679-1255): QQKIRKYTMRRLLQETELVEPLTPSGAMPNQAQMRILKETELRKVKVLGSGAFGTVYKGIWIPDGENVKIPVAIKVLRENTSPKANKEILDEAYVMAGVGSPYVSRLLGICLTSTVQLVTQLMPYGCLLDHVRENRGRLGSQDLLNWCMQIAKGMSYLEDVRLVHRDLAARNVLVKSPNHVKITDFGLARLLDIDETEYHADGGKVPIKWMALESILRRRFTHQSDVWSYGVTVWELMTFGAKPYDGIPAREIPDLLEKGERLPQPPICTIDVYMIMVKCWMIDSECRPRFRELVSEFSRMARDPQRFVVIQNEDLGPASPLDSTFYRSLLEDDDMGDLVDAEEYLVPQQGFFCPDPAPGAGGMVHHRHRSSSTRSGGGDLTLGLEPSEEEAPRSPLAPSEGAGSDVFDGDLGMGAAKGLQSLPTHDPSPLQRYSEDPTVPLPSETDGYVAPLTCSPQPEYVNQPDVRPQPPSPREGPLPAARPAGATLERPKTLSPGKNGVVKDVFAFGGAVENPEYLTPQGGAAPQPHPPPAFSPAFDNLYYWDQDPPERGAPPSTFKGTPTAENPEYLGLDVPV
T7 sequence (P07948 whole entry): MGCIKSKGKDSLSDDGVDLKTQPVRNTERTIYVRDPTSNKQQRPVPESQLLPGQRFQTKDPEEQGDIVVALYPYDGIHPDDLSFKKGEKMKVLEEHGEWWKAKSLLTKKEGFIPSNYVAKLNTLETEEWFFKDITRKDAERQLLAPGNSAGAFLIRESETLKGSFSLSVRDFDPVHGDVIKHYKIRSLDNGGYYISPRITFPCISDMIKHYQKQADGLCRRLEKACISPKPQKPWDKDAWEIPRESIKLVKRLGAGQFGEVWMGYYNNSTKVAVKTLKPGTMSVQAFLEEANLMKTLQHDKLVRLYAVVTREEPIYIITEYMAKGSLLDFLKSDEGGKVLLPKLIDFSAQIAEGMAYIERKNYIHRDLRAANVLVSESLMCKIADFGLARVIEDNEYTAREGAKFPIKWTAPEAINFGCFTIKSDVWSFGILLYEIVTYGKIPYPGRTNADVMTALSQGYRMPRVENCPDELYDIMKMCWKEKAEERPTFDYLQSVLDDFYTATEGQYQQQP

SMILES	IC50 [1]	IC50 [2]	IC50 [3]	IC50 [4]	IC50 [5]	IC50 [6]	IC50 [7]	IC50 [8]	IC50 [9]	IC50 [10]
COCc1cccc2[nH]c(-c3n[nH]c4ncc(-c5cc[nH]c5)cc34)nc12 [Cpd 40, 3-(4-methoxymethyl-1H-benzoimidazol-2-yl)-5-(1H-pyrrol-3-yl)-1H-pyrazolo[3,4-b]pyridine]	1190 nM	462 nM	> 100000 nM	~1000 nM	327 nM	1220 nM	73.7 nM	56.5 nM		
COCc1cccc2[nH]c(-c3n[nH]c4ncc(-c5cncc(C=O)c5)cc34)nc12 [Cpd 41, 5-[3-(4-methoxymethyl-1H-benzoimidazol-2-yl)-1H-pyrazolo[3,4-b]pyridin-5-yl]-pyridine-3-carbaldehyde]	231 nM	> 1000 nM	~100000 nM	248 nM	92.5 nM	1220 nM	265 nM	161 nM	> 100000 nM	
CCNCc1cncc(-c2cnc3[nH]nc(-c4nc5c(COC)cccc5[nH]4)c3c2)c1 [Cpd 42, ethyl-{5-[3-(4-methoxymethyl-1H-benzoimidazol-2-yl)-1H-pyrazolo[3,4-b]pyridin-5-yl]-pyridin-3-ylmethyl}-amine]	9.8 nM	~1000 nM	> 10000 nM	4460 nM	358 nM	298 nM	239 nM	280 nM	7630 nM	
COCc1cccc2[nH]c(-c3n[nH]c4ncc(-c5cncc(CN)c5)cc34)nc12 [Cpd 73, C-{5-[3-(4-methoxymethyl-1H-benzoimidazol-2-yl)-1H-pyrazolo[3,4-b]pyridin-5-yl]-pyridin-3-yl}-methylamine]	42.7 nM	> 10000 nM	> 10000 nM	4750 nM	823 nM	2550 nM	678 nM	412 nM	> 10000 nM	
COCc1cccc2[nH]c(-c3n[nH]c4ncc(-c5cncc(CNCCN6CCOCC6)c5)cc34)nc12 [Cpd 74, {5-[3-(4-methoxymethyl-1H-benzoimidazol-2-yl)-1H-pyrazolo[3,4-b]pyridin-5-yl]-pyridin-3-ylmethyl}-(2-morpholin-4-yl-ethyl)-amine]	551 nM	284 nM	~100000 nM	6820 nM	954 nM	4780 nM	459 nM	386 nM	~100000 nM	
COCCNCc1cncc(-c2cnc3[nH]nc(-c4nc5c(COC)cccc5[nH]4)c3c2)c1 [Cpd 75, (2-methoxy-ethyl)-{5-[3-(4-methoxymethyl-1H-benzoimidazol-2-yl)-1H-pyrazolo[3,4-b]pyridin-5-yl]-pyridin-3-ylmethyl}-amine]	63.6 nM	1640 nM	> 10000 nM	4500 nM	378 nM	594 nM	205 nM	163 nM	> 10000 nM	
COCc1cccc2[nH]c(-c3n[nH]c4ncc(-c5cncc(CNCCN(C)C)c5)cc34)nc12 [Cpd 76, N′-{5-[3-(4-methoxymethyl-1H-benzoimidazol-2-yl)-1H-pyrazolo[3,4-b]pyridin-5-yl]-pyridin-3-ylmethyl}-N,N-dimethyl-ethane-1,2-diamine]	595 nM	1370 nM	> 100000 nM	6600 nM	1010 nM	10100 nM	178 nM	255 nM	> 100000 nM	
COCc1cccc2[nH]c(-c3n[nH]c4ncc(-c5cncc(CNCCO)c5)cc34)nc12 [Cpd 77, 2-({5-[3-(4-methoxymethyl-1H-benzoimidazol-2-yl)-1H-pyrazolo[3,4-b]pyridin-5-yl]-pyridin-3-ylmethyl}-amino)-ethanol]	13 nM	349 nM	> 10000 nM	3180 nM	183 nM	1620 nM	1610 nM	643 nM	> 10000 nM	
Fc1ccc2nc(-c3n[nH]c4ncc(-c5cccnc5)cc34)[nH]c2c1 [Cpd 92, 3-(6-fluoro-1H-benzoimidazol-2-yl)-5-pyridin-3-yl-1H-pyrazolo[3,4-b]pyridine]	6.57 nM				97.9 nM	698 nM	467 nM	348 nM		> 100000 nM
FC(F)(F)Oc1ccc2[nH]c(-c3n[nH]c4ncc(-c5cccnc5)cc34)nc2c1 [Cpd 94, 5-pyridin-3-yl-3-(5-trifluoromethoxy-1H-benzoimidazol-2-yl)-1H-pyrazolo[3,4-b]pyridine]	6 nM		> 100000 nM	> 10000 nM	756 nM	799 nM	645 nM	519 nM	> 100000 nM	
OCCOc1ccc2[nH]c(-c3n[nH]c4ncc(-c5cccnc5)cc34)nc2c1 [Cpd 95, 2-[2-(5-pyridin-3-yl-1H-pyrazolo[3,4-b]pyridine-3-yl)-1H-benzoimidazol-5-yloxyl]-ethanol]	3.4 nM		> 100000 nM	229 nM	74 nM	1930 nM	2650 nM	1410 nM	> 1000 nM	
COc1ccc2[nH]c(-c3n[nH]c4ncc(-c5cncc(CNC(C)C)c5)cc34)nc2c1 [Cpd 102, isopropyl-{5-[3-(5-methoxy-1H-benzoimidazol-2-yl)-1H-pyrazolo[3,4-b]pyridin-5-yl]-pyridin-3-ylmethyl}-amine]	3.2 nM	269 nM	10700 nM	359 nM	11.7 nM	47.2 nM	120 nM	106 nM	~1000 nM	
